Read-outs that look alike come from different tables or passages of the source.
Tests used:
HCT116 cells = assay: AlamarBlue cell proliferation assay, HCT116; settings: for IC50: read-out: Half maximal inhibitory concentration (IC50) HCT116, 24 hours exposure, AlamarBlue, mean of three replicates ± standard error
Method: (§1) Human colorectal carcinoma cell line HCT116 and human breast adenocarcinoma cell line MCF-7 were purchased from ATCC. The cells were cultured in Dulbecco's Modified Eagle's Medium (DMVEM) complemented with 10% fetal bovine serum (FBS) at 37° C. (5% CO2 and 95% humidity). 100 µg/mL streptomycin and 100 U/mL penicillin were used in the media to prevent microbial growth. Assays were performed on cells from passages 3-8.
(§2) AlamarBlue® was used to determine the drug-dose response according to the manufacturer's instruction (Thermo Fisher, Waltham, Massachusetts, United States). The samples of complexes were diluted to a working concentration in DMVEM before their exposure to the cancer cells. The cancer cells were cultivated in 96-well plates for 24 hours. The cell culture medium was then removed and the diluted test compounds were added to the wells. The well plates were incubated for 24 hours at 37° C. with 5% CO2. Subsequently, the cell culture medium was removed for the addition of 10% AlamarBlue® (diluted in DMEM) to each well. The plates were incubated for 3 hours at 37° C. protected from light. The cytotoxicity/proliferation was measured using fluorescence spectrophotometry with fluorescence being read at an excitation wavelength of 560 nm and an emission wavelength of 590 nm. To calculate the percentage difference in reduction between treated and control cells in cytotoxicity/proliferation assays, the following formula was used: […]
(§3) The prepared […] complexes 1-4 were evaluated for their inhibition of cell proliferation towards two human cancer cell lines: HCT116 and MCF-7. The cells were treated with a range of concentrations (0.3, 1, 3, 10, 100 μM) of the complexes for 24 hours. The cells viability were then assessed and half maximal inhibitory concentration (IC50) values were calculated thereafter. […] These values are about 6- to 20-fold lower than cisplatin IC50 values.

MCF-7 cells [1] = assay: AlamarBlue cell proliferation assay, MCF-7; type: cell-based, human; settings: 24 hours exposure, mean of three replicates ± standard error
Method: as §1, §2, §3

MCF-7 cancer cell line = settings: value from cited reference; read-out: IC50 MCF-7 (literature complexes); cited from earlier work
[2] = tested on: prostate (PC-3) cancer cells; settings: PC-3 cells; cited from earlier work
[3] = tested on: glioblastoma (U87-MG) cancer cells; settings: cited from earlier work
HCT116 cancer cell line = settings: value from cited reference; read-out: IC50 HCT116 (literature complexes); cited from earlier work
[4] = Solution chemistry / stability by UV-Vis spectrophotometry; type: physicochemical; settings: room temperature; complexes 2, 3 in DMSO:H2O (3:7); complex 4 in 100% DMSO and DMSO:H2O (1:1)
Method: The solution chemistry of complexes 2, 3, and 4 ([…], 10 mL) was investigated using ultraviolet-visible (UV-Vis) spectrophotometry at room temperature. The studied complexes are partially soluble in aqueous solution. Complexes 2 and 3 were dissolved in the mixture of DMSO:H2O (3:7), where H2O is a co-solvent of DMSO. A UV-Vis experiment was performed initially at time=0 (2 and 3) and at time=24 hours (2′ and 3′) (FIG. 26A). Furthermore, complex 4 was dissolved in 100% DMSO and a mixture of (DMSO:H2O) (1:1), where H2O is co-solvent of DMSO. Further, a UV-Vis experiment was performed initially at time=0 (4) and at time=24 hours.

MCF-7 cells [5] = assay: Mitochondrial membrane potential (ΔΨm), JC-1 dye; type: cell-based, human; settings: MCF-7, 24 hours
Method: MCF-7 cells (1×10^4 cells per well in a 96-well plate) were treated with different concentrations of complexes, and untreated cells were used as a negative control. After treatment for 24 hours, 5,5′,6,6′-tetrachloro-1,1′,3,3′-tetraethylbenzimidazolocarbocyanine iodide (JC-1) dye (Thermo Fisher, Waltham, Massachusetts, United States) was added to each well containing the cells. The staining was performed following the protocol provided by the manufacturer. A fluorescence spectrophotometer was used to measure the fluorescence of JC-1-stained cells, and fluorescence signals in the red and green channels were recorded separately.
To examine the effect of complexes 1-4 on mitochondrial membrane potential (ΔΨm), JC-1 fluorescence dye was used to stain intact and depolarized mitochondria in MCF-7 cells following exposure to the complexes.

[6] = read-out: Half maximal inhibitory concentration (IC50) MCF-7

Question: For `N.N.[Cl][Pt][Cl]` [Cisplatin, reference compound], which IC50 (HCT116 cells) is on record?
Answer: 20.8 ± 0.93 µM

Question: And the IC50 (MCF-7 cells [1]; [6])?
Answer: 21.1 ± 1.41 µM

Question: For `[C](#Cc1ccncc1)[Au][PH](CCCC[PH]([Au][C]#Cc1ccncc1)(c1ccccc1)c1ccccc1)(c1ccccc1)c1ccccc1` [[Au2(dppb)(4-ep)2]], which IC50 (MCF-7 cancer cell line) is on record?
Answer: 2.8 ± 0.6 µM

Question: For `COc1cccc(OC)c1[PH]([Au+][PH](c1c(OC)cccc1OC)(c1c(OC)cccc1OC)c1c(OC)cccc1OC)(c1c(OC)cccc1OC)c1c(OC)cccc1OC.F[P-](F)(F)(F)(F)F` [[Au{P(2,6-dimethoxyphenyl)3}2]PF6], which “fold higher cytotoxicity than cisplatin” value [2] is on record?
Answer: 30 fold

Question: What about the “fold higher cytotoxicity than cisplatin” value [3] of the same compound?
Answer: 30 fold

Question: With “Chlorotriphenylposphine-1,3-bis(diphenylphosphino)propanegold(I) [[Au(dppp)(PPh3)Cl]]” as the compound, how does the IC50 (HCT116 cancer cell line) read?
Answer: 4.17 µM

Question: Which results are given for [Au2(Bdbp)(Dpma)]P2F12 [Complex 4]?
Answer: IC50 (HCT116 cells): 0.93 µM; stability in solution (UV-Vis, time 0 vs 24 hours) [4]: high stability; effect on mitochondrial membrane potential (ΔΨm) at 2.5 μM (MCF-7 cells [5]): most reduction of ΔΨm; IC50 (MCF-7 cells [1]; listed as 4, read-out: Half maximal inhibitory concentration (IC50) MCF-7): 1.2 ± 0.32 µM; IC50 (MCF-7 cells [1]; listed as complex 4, read-out: Half maximal inhibitory concentration (IC50) MCF-7): 1.8 µM

Question: With [Au2(Bdbp)(Dppb)]P2F12 [Complex 3] as the compound, how does the IC50 (HCT116 cells) read?
Answer: 1.8 ± 0.22 µM

Question: What about the “increase of cytotoxic effect on lengthening linker from 2 carbons (complex 1) to 4 carbons” value (HCT116 cells; relative to complex 1, FIG. 24A/24E vs 24C/24G (HCT116 and MCF-7)) of the same compound?
Answer: about 4.5 fold

Question: And the “stability in solution (UV-Vis, time 0 vs 24 hours)” value [4]?
Answer: less stability

Question: What about the IC50 (MCF-7 cells [1]; [6]) of the same compound?
Answer: 1.3 ± 0.54 µM

Question: With [Au2(Bdbp)(Dppe)]P2F12 [Complex 1] as the compound, how does the IC50 (HCT116 cells) read?
Answer: 8.2 µM

Question: And the “effect on mitochondrial membrane potential (ΔΨm) at 2.5 μM” value (MCF-7 cells [5])?
Answer: least reduction of ΔΨm

Question: And the IC50 (MCF-7 cells [1]; [6])?
Answer: 7.9 µM

Question: With [Au2(Bdbp)(Dppp)]P2F12 [Complex 2] as the compound, how does the IC50 (HCT116 cells) read?
Answer: 3.6 ± 0.37 µM

Question: What about the IC50 (MCF-7 cells [1]; [6]) of the same compound?
Answer: 2.3 ± 0.24 µM
